These results are taken from patent publication US8114864B2, “Macrolide antibiotics and their use for medical purposes” (Helmholtz-Zentrum Fuer Infektionsforschung, priority 2006, dated 2012).

Values after ≈ are worked out from the molar mass of the structure shown. Where two headings read alike, the source gives them in different places. Bounds are passed on as bounds.

Data set [1] has as its system Micrococcus luteus, Mycobacterium phlei and M. chitae. Briefly: MIC in liquid culture.
For another data set, the system named is Corynebacterium fascians. Briefly: Agar diffusion test. The class given is cell-based. The following applies: Rhodococcoides fascians, read-out: Diameter of inhibition zone. How it is done: (§1) In an agar diffusion test using 10 μg of the compound per disc, the following inhibition was found: […]
In general terms: Agar diffusion results depend on both activity and mobility in agar.

The test system of data set [2] is Micrococcus luteus. Briefly: Agar diffusion test. The class given is cell-based. The following applies: read-out: Diameter of inhibition zone. The protocol: as §1
Another data set has as its system Mycobacterium phlei. Briefly: Agar diffusion test. The class given is cell-based. The following applies: Mycolicibacterium phlei, read-out: Diameter of inhibition zone. The protocol: as §1
For data set [3], the system named is Mycobacterium tuberculosis test strain H375RV. Briefly: Growth inhibition of Mycobacterium tuberculosis in liquid culture. Format: cell-based. The following applies: for antibiotic activity against Mycobacterium tuberculosis: clinical isolates and reference strains. The protocol: Using the standard Mycobacterium tuberculosis test strain H375RV, it could be shown that thuggacin A inhibited growth at or below 8 μg/mL in liquid culture.
For tests of the biological activity, preferably aqueous compositions of the thuggacins according to the present invention were used separately in an aqueous composition comprising 10 mM acetic acid for stabilisation.

The nature of data set [4]: Stability / rearrangement of thuggacins in protic solvent. Format: physicochemical. The following applies: for stability in aqueous solution: optionally comprising a C1-C2 alcohol. How it is done:
Starting from 8 mg/mL thuggacin A, an equilibrium of thuggacin A, thuggacin-B and thuggacin C could be found after approximately 96 hours. In general, the reaction time for reaching the equilibrium can vary over a broad range, e.g. from 1 to 20 days. Re-crystallized thuggacin of high purity is nearly stable, i.e. undergo rearrangement only very slowly. Thuggacin A having a lower purity will undergo rearrangement to thuggacin B and C with increased reaction rates. Similar stabilities have been observed for the rearrangement reaction of thuggacin cmc-A to thuggacin cmc-B and cmc-C.

In data set [5] the test system is mouse fibroblast cells (L929). Put plainly: Sensitivity of cultivated mouse fibroblast cells.
For data set [6], the system named is Micrococcus luteus. Briefly: Inhibition of oxygen demand/consumption of Micrococcus luteus in liquid culture. The following applies: initial studies. The class given is cell-based.
The subject of data set [7] is NADH oxidation of crude cytoplasmic membrane fractions. Briefly: Inhibition of NADH oxidation of crude cytoplasmic membrane fractions. The class given is biochemical. The following applies: initial studies using Micrococcus luteus.

As to `C/C=C(C)/C=C(\C)CC(C)C(O)C(O)C1C/C=C\C=C\C(O)CC(O)C(CO)c2nc(cs2)/C=C(\C)C(=O)O1` (centres unmarked) [thuggacin cmc-A], in data set [1], the “relative effectiveness in liquid culture MIC experiments” value (shortened to “relative effectiveness”) is recorded as “most effective”. Further, the figures for the zone of inhibition at 10 µg/disc in the data set on Corynebacterium fascians, in the data set with Micrococcus luteus [2] and in the data set with Mycobacterium phlei were 47 mm, 46 mm and 24 mm, respectively.
For the molecule `C/C=C(C)/C=C(\C)C(O)C(C)C1OC(=O)/C(CCCCCC)=C/c2csc(n2)C(C)C(O)CC(O)/C=C/C=C\CC(O)C1O` (centres unmarked) [thuggacin C], the “antibiotic activity against Mycobacterium tuberculosis” value in data set [3] is “antibiotic activity”. Moreover, in [1], the “relative effectiveness” value is recorded as “less effective against certain bacteria”.
Consider `C/C=C(C)/C=C(\C)C(O)C(C)C(O)C1OC(=O)/C(CCCCCC)=C/c2csc(n2)C(C)C(O)CC(O)/C=C/C=C\CC1O` (centres unmarked) [thuggacin B], for which the “antibiotic activity against Mycobacterium tuberculosis” value in [3] was “antibiotic activity”. Besides, the “relative effectiveness” value in data set [1] is on record as “most effective”. In addition, in data set [4], the “stability in aqueous solution” value is recorded as “not stable”. In data set [5], this molecule returned an IC50 of 8 µg/mL (≈ 12.7 µM).
As for `C/C=C(C)/C=C(\C)C(O)C(C)C(O)C(O)C1C/C=C(C)\C=C\C(O)CC(O)C(C)c2nc(cs2)/C=C(\CCCCCC)C(=O)O1` (centres unmarked) [13-methyl thuggacin A], in data set [3], the “antibiotic activity against Mycobacterium tuberculosis” value was “antibiotic activity”.
As for `C/C=C(C)/C=C(\C)CC(C)C(O)C1OC(=O)/C(C)=C/c2csc(n2)C(CO)C(O)CC(O)/C=C/C=C\CC1O` (centres unmarked) [thuggacin cmc-B], in [1], the “relative effectiveness” value is reported as “most effective”.
Turning to `C/C=C(C)/C=C(\C)CC(C)C1OC(=O)/C(C)=C/c2csc(n2)C(CO)C(O)CC(O)/C=C/C=C\CC(O)C1O` (centres unmarked) [thuggacin cmc-C], the values for the zone of inhibition at 10 µg/disc in the data set on Corynebacterium fascians, with Micrococcus luteus [2] and in the data set on Mycobacterium phlei were 44 mm, 44 mm and 22 mm, respectively.
For `C/C=C(C)/C=C(\C)C(O)C(C)C(O)C(O)C1C/C=C\C=C\C(O)CC(O)C(C)c2nc(cs2)/C=C(\CCCCCC)C(=O)O1` (centres unmarked) [thuggacin A], the “inhibition of oxygen consumption” value in the data set on Micrococcus luteus [6] is “almost completely”. In data set [3], the “antibiotic activity against Mycobacterium tuberculosis” value is “antibiotic activity”. For the same molecule, the concentration inhibiting growth in [3] (liquid culture, strain H375RV) is at most 8 µg/mL. Moreover, in data set [1], the “relative effectiveness” value is “most effective”. In data set [4], the “stability in aqueous solution” value was “not stable”. Further, the “time to equilibrium of thuggacin A, thuggacin B and thuggacin C” value in data set [4] (starting from 8 mg/mL thuggacin A, aqueous composition optionally including methanol (FIG. 1: methanol)) was “approximately 96 hours”. Also, the “oxidation of NADH and of reduced cytochrome c” value in data set [7] is “reduced”. In addition, inhibition in data set [5] was half-maximal at 4 µg/mL (≈ 6.33 µM) (IC50). Moreover, the zone of inhibition at 10 µg/disc in the data set on Corynebacterium fascians (10 μg of compound per disc, Corynebacterium fascians, figures in parentheses indicate an incomplete inhibition) was 30 mm; in the data set on Micrococcus luteus [2] (10 μg of compound per disc), 29 mm; in the data set with Mycobacterium phlei (10 μg of compound per disc, Mycobacterium phlei) it was 20 mm.

The term zone of inhibition denotes the size of the clear area around the sample on an inoculated plate. The IC50 is the concentration at which inhibition is half-maximal. High values mean a need for much substance, low ones inhibition by little substance.
